The assay is described as follows: Agonist activity at ERalpha in human MCF7 cells assessed as induction of cell proliferation incubated for 5 days by WST-8 assay. Background: Formazan colour is commonly taken as a measure of viable cells.

For the molecule `CC(=O)N1C(C)(C)CC(=C(c2ccc(O)cc2)c2ccc(O)cc2)CC1(C)C`, the concentration giving a half-maximal response (EC50) worked out at 0.22 nM.

By EC50 is commonly meant the concentration needed to bring the measured effect to its halfway point.

These data come from BindingDB's records for doi:10.1016/j.bmc.2016.01.035 (Tohoku Pharmaceutical University, 2016).
